Test results taken from PubChem BioAssay AID1259407 (Chemical Carcinogenesis Research Information System (CCRIS), 2018).
Calls of active or inactive are those of the source. The rule behind the calls is not given here.

System: CCRIS mutagenicity, Ames/micronucleus/aberration tests
Assay: CCRIS mutagenicity studies
[1] = Test System: AMES SALMONELLA TYPHIMURIUM, Strain/Indicator: TA98, Metabolic Activation: HAMSTER, LIVER, S-9, AROCLOR 1254, Method: STANDARD PLATE
[2] = Test System: AMES SALMONELLA TYPHIMURIUM, Strain/Indicator: TA98, Metabolic Activation: NONE, Method: STANDARD PLATE
[3] = Test System: AMES SALMONELLA TYPHIMURIUM, Strain/Indicator: TA98, Metabolic Activation: RAT, LIVER, S-9, AROCLOR 1254, Method: STANDARD PLATE
[4] = Test System: AMES SALMONELLA TYPHIMURIUM, Strain/Indicator: TA100, Metabolic Activation: HAMSTER, LIVER, S-9, AROCLOR 1254, Method: STANDARD PLATE
[5] = Test System: AMES SALMONELLA TYPHIMURIUM, Strain/Indicator: TA100, Metabolic Activation: NONE, Method: STANDARD PLATE
[6] = Test System: AMES SALMONELLA TYPHIMURIUM, Strain/Indicator: TA100, Metabolic Activation: RAT, LIVER, S-9, AROCLOR 1254, Method: STANDARD PLATE
[7] = Test System: AMES SALMONELLA TYPHIMURIUM, Strain/Indicator: TA102, Metabolic Activation: HAMSTER, LIVER, S-9, AROCLOR 1254, Method: STANDARD PLATE
[8] = Test System: AMES SALMONELLA TYPHIMURIUM, Strain/Indicator: TA102, Metabolic Activation: NONE, Method: STANDARD PLATE
[9] = Test System: AMES SALMONELLA TYPHIMURIUM, Strain/Indicator: TA102, Metabolic Activation: RAT, LIVER, S-9, AROCLOR 1254, Method: STANDARD PLATE
[10] = Test System: AMES SALMONELLA TYPHIMURIUM, Strain/Indicator: TA1535, Metabolic Activation: HAMSTER, LIVER, S-9, AROCLOR 1254, Method: STANDARD PLATE
[11] = Test System: AMES SALMONELLA TYPHIMURIUM, Strain/Indicator: TA1535, Metabolic Activation: NONE, Method: STANDARD PLATE
[12] = Test System: AMES SALMONELLA TYPHIMURIUM, Strain/Indicator: TA1535, Metabolic Activation: RAT, LIVER, S-9, AROCLOR 1254, Method: STANDARD PLATE
[13] = Test System: AMES SALMONELLA TYPHIMURIUM, Strain/Indicator: TA1537, Metabolic Activation: HAMSTER, LIVER, S-9, AROCLOR 1254, Method: STANDARD PLATE
[14] = Test System: AMES SALMONELLA TYPHIMURIUM, Strain/Indicator: TA1537, Metabolic Activation: NONE, Method: STANDARD PLATE
[15] = Test System: AMES SALMONELLA TYPHIMURIUM, Strain/Indicator: TA1537, Metabolic Activation: RAT, LIVER, S-9, AROCLOR 1254, Method: STANDARD PLATE
[16] = Test System: AMES SALMONELLA TYPHIMURIUM, Strain/Indicator: TA1538, Metabolic Activation: NONE, Method: STANDARD PLATE

Question: What does the source list for `CCO[Si](OCC)(OCC)OCC`?
Answer: mutagenic call [1]: inactive; negative; mutagenic call [2]: inactive; negative; mutagenic call [3]: inactive; negative; mutagenic call [4]: inactive; negative; mutagenic call [5]: inactive; negative; mutagenic call [6]: inactive; negative; mutagenic call [7]: inactive; negative; mutagenic call [8]: inactive; negative; mutagenic call [9]: inactive; negative; mutagenic call [10]: inactive; negative; mutagenic call [11]: inactive; negative; mutagenic call [12]: inactive; negative; mutagenic call [13]: inactive; negative; mutagenic call [14]: inactive; negative; mutagenic call [15]: inactive; negative; mutagenic call (Test System: MOUSE LYMPHOMA, Strain/Indicator: L5178Y (TK+/TK-), Metabolic Activation: NONE, Method: SUSPENSION/PLATE): inactive; negative. reevaluation of results: negative; mutagenic call (Test System: Mouse lymphoma, Strain/Indicator: L5178 Y (tk+/tk-), Metabolic Activation: Rat, Liver, S-9, Aroclor 1254, Method: Suspension/plate): inactive; negative

Question: Which mutagenic call (Test System: AMES SALMONELLA TYPHIMURIUM, Strain/Indicator: TA104, Metabolic Activation: NONE, Method: STANDARD PLATE) does the source give for `C=C1C(=O)O[C@@H]2C[C@]3(C)[C@@H](CCC(C)=O)[C@@H]3C[C@H]12` here?
Answer: inactive; negative

Question: And the mutagenic call (Test System: AMES SALMONELLA TYPHIMURIUM, Strain/Indicator: TA104, Metabolic Activation: RAT, LIVER, S-9, Method: STANDARD PLATE)?
Answer: inactive; negative

Question: With `N#CCCC(Br)(C#N)CBr` (configuration not stated) as the compound, how does the mutagenic call (End Point: In vivo micronucleus, Test System: Peripheral blood normochromatic erythrocytes, Species: Mouse, Strain/Sex: B6C3F1/Female, Route: Dermal) read?
Answer: inactive; negative

Question: And the mutagenic call (End Point: In vivo micronucleus, Test System: Peripheral blood normochromatic erythrocytes, Species: Mouse, Strain/Sex: B6C3F1/Male, Route: Dermal)?
Answer: inactive; negative

Question: What about the mutagenic call (Test System: Ames Salmonella typhimurium, Strain/Indicator: TA97, Metabolic Activation: Hamster, Liver, S-9, Aroclor 1254 (10 and 30%), Method: Preincubation) of the same compound?
Answer: inactive; negative

Question: What about the mutagenic call (Test System: Ames Salmonella typhimurium, Strain/Indicator: TA97, Metabolic Activation: None, Method: Preincubation) of the same compound?
Answer: inactive; negative

Question: What about the mutagenic call (Test System: Ames Salmonella typhimurium, Strain/Indicator: TA97, Metabolic Activation: Rat, Liver, S-9, Aroclor 1254 (10 and 30%), Method: Preincubation) of the same compound?
Answer: inactive; negative

Question: What about the mutagenic call (Test System: Ames Salmonella typhimurium, Strain/Indicator: TA98, Metabolic Activation: Hamster, Liver, S-9, Aroclor 1254 (10 and 30%), Method: Preincubation) of the same compound?
Answer: inactive; negative

Question: What about the mutagenic call (Test System: Ames Salmonella typhimurium, Strain/Indicator: TA98, Metabolic Activation: None, Method: Preincubation) of the same compound?
Answer: inactive; negative

Question: And the mutagenic call (Test System: Ames Salmonella typhimurium, Strain/Indicator: TA98, Metabolic Activation: Rat, Liver, S-9, Aroclor 1254 (10 and 30%), Method: Preincubation)?
Answer: inactive; negative

Question: What about the mutagenic call (Test System: Ames Salmonella typhimurium, Strain/Indicator: TA100, Metabolic Activation: Hamster, Liver, S-9, Aroclor 1254 (10 and 30%), Method: Preincubation) of the same compound?
Answer: inactive; negative

Question: What about the mutagenic call (Test System: Ames Salmonella typhimurium, Strain/Indicator: TA100, Metabolic Activation: None, Method: Preincubation) of the same compound?
Answer: inactive; negative

Question: What about the mutagenic call (Test System: Ames Salmonella typhimurium, Strain/Indicator: TA100, Metabolic Activation: Rat, Liver, S-9, Aroclor 1254 (10 and 30%), Method: Preincubation) of the same compound?
Answer: inactive; negative

Question: What about the mutagenic call (Test System: Ames Salmonella typhimurium, Strain/Indicator: TA1535, Metabolic Activation: Hamster, Liver, S-9, Aroclor 1254 (10 and 30%), Method: Preincubation) of the same compound?
Answer: inactive; negative

Question: And the mutagenic call (Test System: Ames Salmonella typhimurium, Strain/Indicator: TA1535, Metabolic Activation: None, Method: Preincubation)?
Answer: inactive; negative

Question: And the mutagenic call (Test System: Ames Salmonella typhimurium, Strain/Indicator: TA1535, Metabolic Activation: Rat, Liver, S-9, Aroclor 1254 (10 and 30%), Method: Preincubation)?
Answer: inactive; negative

Question: What about the mutagenic call (Test System: E. coli, Strain/Indicator: WP2 uvrA/pKM101, Metabolic Activation: None, Method: Preincubation) of the same compound?
Answer: inactive; negative

Question: And the mutagenic call (Test System: E. coli, Strain/Indicator: WP2 uvrA/pKM101, Metabolic Activation: Rat, Liver, S-9, Aroclor 1254 (10%), Method: Preincubation)?
Answer: inactive; negative

Question: For `CC(C)Cl`, which mutagenic call (End Point: In vitro micronucleus, Test System: Chinese Hamster Ovary (CHO-WBL) cells, Metabolic Activation: None) is on record?
Answer: inactive; negative

Question: And the mutagenic call (Test System: AMES SALMONELLA TYPHIMURIUM, Strain/Indicator: TA100, Metabolic Activation: NONE, Method: DESICCATOR)?
Answer: active; positive

Question: And the mutagenic call (Test System: AMES SALMONELLA TYPHIMURIUM, Strain/Indicator: TA100, Metabolic Activation: RAT, LIVER, S-9, AROCLOR 1254, Method: DESICCATOR)?
Answer: active; positive

Question: How did the mutagenic call [1] turn out when `Cc1nc2ccccc2s1` was run?
Answer: inactive; negative

Question: And the mutagenic call [2]?
Answer: inactive; negative

Question: And the mutagenic call [3]?
Answer: inactive; negative

Question: And the mutagenic call [4]?
Answer: inactive; negative

Question: What about the mutagenic call [5] of the same compound?
Answer: inactive; negative

Question: And the mutagenic call [6]?
Answer: inactive; negative

Question: And the mutagenic call [7]?
Answer: inactive; negative

Question: And the mutagenic call [8]?
Answer: inactive; negative

Question: What about the mutagenic call [9] of the same compound?
Answer: inactive; negative

Question: What about the mutagenic call [10] of the same compound?
Answer: inactive; negative

Question: What about the mutagenic call [11] of the same compound?
Answer: inactive; negative

Question: And the mutagenic call [12]?
Answer: inactive; negative

Question: What about the mutagenic call [13] of the same compound?
Answer: inactive; negative

Question: And the mutagenic call [14]?
Answer: inactive; negative

Question: What about the mutagenic call [15] of the same compound?
Answer: inactive; negative

Question: What about the mutagenic call (Test System: Mouse lymphoma, Strain/Indicator: L5178Y (tk+/tk-), Metabolic Activation: None, Method: Suspension/plate) of the same compound?
Answer: active; positive

Question: What about the mutagenic call (Test System: Mouse lymphoma, Strain/Indicator: L5178Y (tk+/tk-), Metabolic Activation: Rat, Liver, S-9, Aroclor 1254, Method: Suspension/plate) of the same compound?
Answer: inactive; negative

Question: Which mutagenic call (Test System: AMES SALMONELLA TYPHIMURIUM, Strain/Indicator: TA98, Metabolic Activation: MOUSE, LIVER, S-9, Method: STANDARD PLATE) does the source give for `C=CCCCCCCCC` here?
Answer: inactive; negative

Question: And the mutagenic call [2]?
Answer: inactive; negative

Question: What about the mutagenic call (Test System: AMES SALMONELLA TYPHIMURIUM, Strain/Indicator: TA100, Metabolic Activation: MOUSE, LIVER, S-9, Method: STANDARD PLATE) of the same compound?
Answer: inactive; negative

Question: What about the mutagenic call [5] of the same compound?
Answer: inactive; negative

Question: And the mutagenic call [11]?
Answer: inactive; negative

Question: And the mutagenic call [16]?
Answer: inactive; negative

Question: How did the mutagenic call [2] turn out when `O=C(O)CCCC[C@@H]1SC[C@@H]2NC(=O)N[C@@H]21` was run?
Answer: inactive; negative

Question: And the mutagenic call [3]?
Answer: inactive; negative

Question: What about the mutagenic call [5] of the same compound?
Answer: inactive; negative

Question: What about the mutagenic call [6] of the same compound?
Answer: inactive; negative

Question: And the mutagenic call [11]?
Answer: inactive; negative

Question: What about the mutagenic call [12] of the same compound?
Answer: inactive; negative

Question: And the mutagenic call [14]?
Answer: inactive; negative

Question: What about the mutagenic call [15] of the same compound?
Answer: inactive; negative

Question: What about the mutagenic call [16] of the same compound?
Answer: inactive; negative

Question: What about the mutagenic call (Test System: AMES SALMONELLA TYPHIMURIUM, Strain/Indicator: TA1538, Metabolic Activation: RAT, LIVER, S-9, AROCLOR 1254, Method: STANDARD PLATE) of the same compound?
Answer: inactive; negative

Question: What about the mutagenic call (Test System: E. COLI, Strain/Indicator: WP2, Metabolic Activation: NONE, Method: STANDARD PLATE) of the same compound?
Answer: inactive; negative

Question: And the mutagenic call (Test System: E. COLI, Strain/Indicator: WP2, Metabolic Activation: RAT, LIVER, S-9, AROCLOR 1254, Method: STANDARD PLATE)?
Answer: inactive; negative

Question: How did the mutagenic call (Test System: AMES SALMONELLA TYPHIMURIUM, Strain/Indicator: TA1535, Metabolic Activation: RAT, LIVER, S-9, KC500 OR PHENOBARBITAL, Method: LIQUID SUSPENSION) turn out when `CCCN(CCCCO)N=O` was run?
Answer: active; positive

Question: What does the source list for `Cc1cccc2c1cc1ccc3cccc4ccc2c1c34`?
Answer: mutagenic call (Test System: AMES SALMONELLA TYPHIMURIUM, Strain/Indicator: TA100, Metabolic Activation: RAT, INTACT HEPATOCYTES, AROCLOR 1254, Method: PREINCUBATION): inactive; negative; mutagenic call (Test System: AMES SALMONELLA TYPHIMURIUM, Strain/Indicator: TA100, Metabolic Activation: RAT, NADPH-FORTIFIED HOMOGENIZED HEPATOCYTES, AROCLOR 1254, Method: PREINCUBATION): active; positive

Question: Which mutagenic call [6] does the source give for `OC1C=Cc2c(ccc3ccccc23)C1O` (configuration not stated) here?
Answer: active; positive
